Experiments:
Conditions in all cases: Compound concentration 1.0 uM
[1] = target: T1, Aurora kinase C (Homo sapiens) (UniProt Q9UQB9)
T1 sequence (whole entry): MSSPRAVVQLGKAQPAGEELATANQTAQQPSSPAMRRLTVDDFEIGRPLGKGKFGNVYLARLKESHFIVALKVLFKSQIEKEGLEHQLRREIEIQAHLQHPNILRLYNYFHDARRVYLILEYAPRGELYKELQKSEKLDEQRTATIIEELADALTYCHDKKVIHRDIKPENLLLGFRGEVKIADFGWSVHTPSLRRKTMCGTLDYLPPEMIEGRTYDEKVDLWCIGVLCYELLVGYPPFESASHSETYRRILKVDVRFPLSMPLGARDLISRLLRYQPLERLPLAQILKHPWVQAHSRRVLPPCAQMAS

Homo sapiens = species: Homo sapiens
[2] = target: CDK3/cyclin E (Homo sapiens) (UniProt P24864+O96020+Q00526)
Chain of CDK3/cyclin E (Homo sapiens) (O96020 whole entry, looked up): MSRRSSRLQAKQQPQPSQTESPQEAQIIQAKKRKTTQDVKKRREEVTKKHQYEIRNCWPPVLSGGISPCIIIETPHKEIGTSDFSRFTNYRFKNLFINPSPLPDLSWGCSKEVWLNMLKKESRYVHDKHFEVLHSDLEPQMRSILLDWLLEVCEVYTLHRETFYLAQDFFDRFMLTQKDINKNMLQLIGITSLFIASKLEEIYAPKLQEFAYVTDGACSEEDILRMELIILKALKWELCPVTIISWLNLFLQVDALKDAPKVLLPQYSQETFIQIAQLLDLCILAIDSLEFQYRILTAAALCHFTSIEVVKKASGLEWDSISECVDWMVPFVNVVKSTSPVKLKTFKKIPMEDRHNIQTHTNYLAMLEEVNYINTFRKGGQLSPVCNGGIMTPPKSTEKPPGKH
Chain of CDK3/cyclin E (Homo sapiens) (P24864 whole entry, looked up): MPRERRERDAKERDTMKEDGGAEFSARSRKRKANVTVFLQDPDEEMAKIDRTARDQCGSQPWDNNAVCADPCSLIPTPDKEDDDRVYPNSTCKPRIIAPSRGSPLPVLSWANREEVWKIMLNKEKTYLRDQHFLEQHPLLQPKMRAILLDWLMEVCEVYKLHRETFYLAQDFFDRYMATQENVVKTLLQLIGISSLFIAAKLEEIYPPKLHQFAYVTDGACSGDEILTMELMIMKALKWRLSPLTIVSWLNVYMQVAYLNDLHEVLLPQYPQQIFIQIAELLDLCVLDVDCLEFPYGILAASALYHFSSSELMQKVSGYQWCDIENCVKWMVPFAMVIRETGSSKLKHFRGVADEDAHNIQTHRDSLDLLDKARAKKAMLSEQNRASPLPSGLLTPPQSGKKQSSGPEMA
Chain of CDK3/cyclin E (Homo sapiens) (Q00526 whole entry, looked up): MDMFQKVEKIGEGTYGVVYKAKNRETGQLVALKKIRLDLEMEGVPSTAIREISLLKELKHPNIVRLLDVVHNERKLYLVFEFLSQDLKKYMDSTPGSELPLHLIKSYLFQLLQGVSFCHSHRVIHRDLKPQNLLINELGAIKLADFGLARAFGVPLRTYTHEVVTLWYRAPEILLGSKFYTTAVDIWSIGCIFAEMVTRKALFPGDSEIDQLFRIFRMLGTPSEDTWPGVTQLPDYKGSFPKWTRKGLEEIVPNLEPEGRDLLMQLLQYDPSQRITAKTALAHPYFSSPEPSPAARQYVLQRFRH

[3] = target: T2, Serine/threonine-protein kinase haspin (Homo sapiens) (UniProt Q8TF76)
T2 sequence (whole entry): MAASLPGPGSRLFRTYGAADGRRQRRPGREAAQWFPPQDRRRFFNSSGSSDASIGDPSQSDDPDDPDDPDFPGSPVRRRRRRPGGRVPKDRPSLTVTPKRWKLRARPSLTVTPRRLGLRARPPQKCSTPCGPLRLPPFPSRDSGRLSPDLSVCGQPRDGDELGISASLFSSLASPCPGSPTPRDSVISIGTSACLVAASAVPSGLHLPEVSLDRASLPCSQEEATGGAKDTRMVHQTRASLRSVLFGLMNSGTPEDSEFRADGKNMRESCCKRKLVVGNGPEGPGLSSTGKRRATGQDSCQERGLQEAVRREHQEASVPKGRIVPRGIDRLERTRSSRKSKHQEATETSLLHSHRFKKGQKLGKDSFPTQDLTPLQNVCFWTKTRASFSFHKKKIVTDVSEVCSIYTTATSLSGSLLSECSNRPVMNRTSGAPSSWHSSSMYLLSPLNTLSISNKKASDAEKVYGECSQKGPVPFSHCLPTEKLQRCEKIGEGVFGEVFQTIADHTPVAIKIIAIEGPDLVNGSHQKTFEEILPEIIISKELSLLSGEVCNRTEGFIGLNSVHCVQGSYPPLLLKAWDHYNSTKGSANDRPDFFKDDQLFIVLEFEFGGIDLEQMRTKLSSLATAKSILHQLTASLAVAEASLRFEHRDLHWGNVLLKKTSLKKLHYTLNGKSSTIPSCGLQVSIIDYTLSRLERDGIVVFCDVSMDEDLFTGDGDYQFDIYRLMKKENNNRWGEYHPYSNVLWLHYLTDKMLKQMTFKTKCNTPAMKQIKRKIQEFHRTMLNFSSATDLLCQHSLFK

[4] = target: Tyrosine-protein kinase Lyn (Homo sapiens) (UniProt P07948)
Chain of Tyrosine-protein kinase Lyn (Homo sapiens) (P07948 2-512 limits assumed): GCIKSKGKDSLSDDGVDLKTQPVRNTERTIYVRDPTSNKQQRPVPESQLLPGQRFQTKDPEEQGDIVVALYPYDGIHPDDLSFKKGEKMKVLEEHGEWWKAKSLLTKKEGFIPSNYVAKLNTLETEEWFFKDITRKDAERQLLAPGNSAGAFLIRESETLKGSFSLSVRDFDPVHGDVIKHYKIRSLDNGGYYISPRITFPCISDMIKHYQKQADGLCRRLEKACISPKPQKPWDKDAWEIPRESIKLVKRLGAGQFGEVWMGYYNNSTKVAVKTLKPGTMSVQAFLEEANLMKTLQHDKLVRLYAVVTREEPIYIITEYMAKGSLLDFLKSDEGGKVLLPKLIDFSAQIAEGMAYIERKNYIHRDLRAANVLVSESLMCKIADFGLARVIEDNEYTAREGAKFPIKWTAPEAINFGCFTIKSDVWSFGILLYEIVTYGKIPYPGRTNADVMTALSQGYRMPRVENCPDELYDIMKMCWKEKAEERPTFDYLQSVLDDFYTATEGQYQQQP

[5] = target: MAP kinase-activated protein kinase 2 (Homo sapiens) (UniProt P49137)
Chain of MAP kinase-activated protein kinase 2 (Homo sapiens) (P49137 whole entry, looked up): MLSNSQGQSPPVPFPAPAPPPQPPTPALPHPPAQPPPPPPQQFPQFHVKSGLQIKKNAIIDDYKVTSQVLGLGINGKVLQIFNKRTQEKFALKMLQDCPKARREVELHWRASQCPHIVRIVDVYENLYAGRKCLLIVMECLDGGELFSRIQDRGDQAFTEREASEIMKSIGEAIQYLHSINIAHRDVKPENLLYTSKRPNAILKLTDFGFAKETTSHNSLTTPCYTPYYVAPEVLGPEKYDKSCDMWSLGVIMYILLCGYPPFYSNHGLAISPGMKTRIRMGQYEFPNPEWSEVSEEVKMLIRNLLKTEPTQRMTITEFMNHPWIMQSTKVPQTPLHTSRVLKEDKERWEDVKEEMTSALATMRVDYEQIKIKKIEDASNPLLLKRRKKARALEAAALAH

[6] = target: Dual specificity mitogen-activated protein kinase kinase 2 (Homo sapiens) (UniProt P36507)
Chain of Dual specificity mitogen-activated protein kinase kinase 2 (Homo sapiens) (P36507 whole entry): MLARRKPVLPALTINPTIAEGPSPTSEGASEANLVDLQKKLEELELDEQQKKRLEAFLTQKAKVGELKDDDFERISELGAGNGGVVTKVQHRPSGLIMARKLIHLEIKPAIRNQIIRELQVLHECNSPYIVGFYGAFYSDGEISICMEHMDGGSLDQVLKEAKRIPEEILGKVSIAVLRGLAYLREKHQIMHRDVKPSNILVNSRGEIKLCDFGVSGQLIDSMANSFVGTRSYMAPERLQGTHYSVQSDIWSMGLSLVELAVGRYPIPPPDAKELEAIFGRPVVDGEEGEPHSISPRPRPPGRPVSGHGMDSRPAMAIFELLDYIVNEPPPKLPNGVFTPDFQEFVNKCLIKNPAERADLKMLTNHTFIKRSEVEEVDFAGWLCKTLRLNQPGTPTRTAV

[7] = target: Serine/threonine-protein kinase MRCK beta (Homo sapiens) (UniProt Q9Y5S2)
Chain of Serine/threonine-protein kinase MRCK beta (Homo sapiens) (Q9Y5S2 whole entry): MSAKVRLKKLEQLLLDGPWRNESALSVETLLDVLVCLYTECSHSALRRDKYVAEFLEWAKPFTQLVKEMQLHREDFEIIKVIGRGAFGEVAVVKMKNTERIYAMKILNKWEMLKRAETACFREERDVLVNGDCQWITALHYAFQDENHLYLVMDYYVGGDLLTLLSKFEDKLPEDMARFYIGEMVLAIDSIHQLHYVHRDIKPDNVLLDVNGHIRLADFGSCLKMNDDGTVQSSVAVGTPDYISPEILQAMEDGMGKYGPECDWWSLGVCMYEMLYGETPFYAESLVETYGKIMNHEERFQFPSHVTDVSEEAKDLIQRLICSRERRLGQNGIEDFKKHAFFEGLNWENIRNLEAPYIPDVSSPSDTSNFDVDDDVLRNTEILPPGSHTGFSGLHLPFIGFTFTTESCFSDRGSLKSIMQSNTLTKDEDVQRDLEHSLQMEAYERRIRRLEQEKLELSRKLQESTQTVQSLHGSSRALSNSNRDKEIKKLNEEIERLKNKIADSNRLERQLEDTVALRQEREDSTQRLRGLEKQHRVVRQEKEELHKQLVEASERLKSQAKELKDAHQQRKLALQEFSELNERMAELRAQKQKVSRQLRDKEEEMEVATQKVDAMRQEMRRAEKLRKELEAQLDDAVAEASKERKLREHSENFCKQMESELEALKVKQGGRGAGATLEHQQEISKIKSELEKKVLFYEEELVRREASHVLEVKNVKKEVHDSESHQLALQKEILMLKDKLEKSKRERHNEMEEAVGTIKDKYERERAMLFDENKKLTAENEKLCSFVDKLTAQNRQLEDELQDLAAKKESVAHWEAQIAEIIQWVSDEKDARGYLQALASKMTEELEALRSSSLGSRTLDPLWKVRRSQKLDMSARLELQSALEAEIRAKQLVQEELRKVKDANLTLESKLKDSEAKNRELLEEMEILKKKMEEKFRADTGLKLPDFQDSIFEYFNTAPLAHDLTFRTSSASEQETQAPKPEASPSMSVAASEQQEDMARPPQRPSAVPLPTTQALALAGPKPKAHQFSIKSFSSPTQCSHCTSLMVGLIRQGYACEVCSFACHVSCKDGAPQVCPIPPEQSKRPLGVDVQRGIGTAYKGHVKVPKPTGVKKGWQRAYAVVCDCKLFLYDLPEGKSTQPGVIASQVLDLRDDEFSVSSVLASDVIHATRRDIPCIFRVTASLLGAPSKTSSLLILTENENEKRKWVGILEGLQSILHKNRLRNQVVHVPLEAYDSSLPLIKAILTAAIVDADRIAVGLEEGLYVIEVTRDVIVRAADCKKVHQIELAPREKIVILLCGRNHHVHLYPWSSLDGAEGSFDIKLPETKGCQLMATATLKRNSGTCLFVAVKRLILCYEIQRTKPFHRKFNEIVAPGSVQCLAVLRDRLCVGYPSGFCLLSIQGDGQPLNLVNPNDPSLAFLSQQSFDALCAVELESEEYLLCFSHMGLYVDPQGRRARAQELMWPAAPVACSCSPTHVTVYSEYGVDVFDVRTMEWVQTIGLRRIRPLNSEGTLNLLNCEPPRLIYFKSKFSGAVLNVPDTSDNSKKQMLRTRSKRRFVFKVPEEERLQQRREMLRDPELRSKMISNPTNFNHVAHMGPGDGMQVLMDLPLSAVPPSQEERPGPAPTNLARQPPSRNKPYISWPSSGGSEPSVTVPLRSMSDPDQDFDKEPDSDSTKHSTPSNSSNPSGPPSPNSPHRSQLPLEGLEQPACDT

[8] = target: Serine/threonine-protein kinase PAK 5 (Homo sapiens) (UniProt Q9P286)
[9] = target: T3, Serine/threonine-protein kinase PLK4 (Homo sapiens) (UniProt O00444)
T3 sequence (whole entry): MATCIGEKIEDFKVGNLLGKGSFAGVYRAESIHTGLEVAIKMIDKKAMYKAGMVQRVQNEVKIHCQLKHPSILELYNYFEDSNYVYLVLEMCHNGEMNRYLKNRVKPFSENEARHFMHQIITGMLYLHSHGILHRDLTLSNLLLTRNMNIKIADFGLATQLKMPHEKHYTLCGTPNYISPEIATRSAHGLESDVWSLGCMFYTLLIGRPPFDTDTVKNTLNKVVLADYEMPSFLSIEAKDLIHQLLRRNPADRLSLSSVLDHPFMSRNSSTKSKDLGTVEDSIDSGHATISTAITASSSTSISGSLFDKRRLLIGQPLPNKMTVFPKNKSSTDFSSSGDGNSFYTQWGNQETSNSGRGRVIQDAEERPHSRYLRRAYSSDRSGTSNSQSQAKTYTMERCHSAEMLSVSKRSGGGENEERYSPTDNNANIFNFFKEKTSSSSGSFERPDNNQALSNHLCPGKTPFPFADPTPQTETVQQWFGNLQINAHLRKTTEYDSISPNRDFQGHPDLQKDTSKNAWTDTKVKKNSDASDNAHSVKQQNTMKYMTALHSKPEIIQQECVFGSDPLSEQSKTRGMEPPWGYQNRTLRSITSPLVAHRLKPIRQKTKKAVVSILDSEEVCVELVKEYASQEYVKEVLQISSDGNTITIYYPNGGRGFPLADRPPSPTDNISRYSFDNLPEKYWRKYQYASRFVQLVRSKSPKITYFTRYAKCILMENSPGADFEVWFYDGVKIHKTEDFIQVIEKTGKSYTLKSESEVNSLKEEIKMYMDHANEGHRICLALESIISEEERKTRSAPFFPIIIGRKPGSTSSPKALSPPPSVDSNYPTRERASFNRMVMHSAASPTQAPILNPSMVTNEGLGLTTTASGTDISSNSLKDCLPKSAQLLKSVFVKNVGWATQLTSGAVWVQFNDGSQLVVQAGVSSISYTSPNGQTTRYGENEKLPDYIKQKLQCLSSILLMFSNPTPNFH

[10] = target: Ribosomal protein S6 kinase alpha-2 (Homo sapiens) (UniProt Q15349)
Chain of Ribosomal protein S6 kinase alpha-2 (Homo sapiens) (Q15349 whole entry): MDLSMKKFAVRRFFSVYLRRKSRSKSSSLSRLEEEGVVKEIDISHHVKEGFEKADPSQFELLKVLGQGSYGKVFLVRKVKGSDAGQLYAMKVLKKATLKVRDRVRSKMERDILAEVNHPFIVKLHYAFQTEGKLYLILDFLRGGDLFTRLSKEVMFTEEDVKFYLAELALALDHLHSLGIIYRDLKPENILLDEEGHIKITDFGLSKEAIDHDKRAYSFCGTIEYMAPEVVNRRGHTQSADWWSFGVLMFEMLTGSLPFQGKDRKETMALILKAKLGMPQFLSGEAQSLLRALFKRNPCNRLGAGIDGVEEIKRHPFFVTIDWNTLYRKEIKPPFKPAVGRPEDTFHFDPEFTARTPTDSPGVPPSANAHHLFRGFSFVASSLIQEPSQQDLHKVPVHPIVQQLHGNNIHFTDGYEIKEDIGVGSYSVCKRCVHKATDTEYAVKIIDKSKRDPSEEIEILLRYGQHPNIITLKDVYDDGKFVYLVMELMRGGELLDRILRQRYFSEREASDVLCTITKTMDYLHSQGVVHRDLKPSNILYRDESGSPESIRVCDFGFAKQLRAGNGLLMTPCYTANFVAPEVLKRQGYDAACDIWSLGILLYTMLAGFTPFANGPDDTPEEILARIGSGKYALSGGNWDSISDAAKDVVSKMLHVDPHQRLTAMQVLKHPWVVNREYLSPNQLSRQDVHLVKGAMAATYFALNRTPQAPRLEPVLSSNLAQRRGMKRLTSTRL

Measured: % residual kinase activity

CN1CCN(c2cnc3c(C4CCN(C(=O)c5ccc(OC(F)(F)F)cc5N)CC4)ncnc3c2)CC1 [BAY-885]
inactive: [1] 95% | Homo sapiens 112% | [2] 106% | [3] 105% | [4] 100% | [5] 81% | [6] 103% | [7] 110% | [8] 115% | [9] 88% | [10] 98%

— ChEMBL document CHEMBL4507268 (2021)
